Results from PubChem BioAssay (NCI).
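The compound was tested at five concentrations on cells cultured in 96-well plates, with a 48-hour exposure period. Abbreviation: GI50, concentration required for 50% inhibition of growth. At the TGI there is no net growth.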

The molecules below were run on MCF7 breast (assay: growth of human tumour cells (NCI), 48 h).

| Compound | TGI | GI50 |
| --- | --- | --- |
| COc1cc2c(cc1OC)C(Cl)C(c1ccc(F)cc1)=C2Cl (stereo not drawn) | 23.9 µM |  |
| CN(C)c1ccc(/C=N/NC(=S)Nc2ccccc2)cc1 | > 100 µM |  |
| COC1=CC(=O)C(C2(OC(C)C)OC(=O)C(Cl)=C2Cl)=CC1=O (stereo not drawn) | > 100 µM |  |
| CN1CCN(c2ccc(Nc3ncc(Cl)c(NC[C@@H]4CCCO4)n3)cc2)CC1 | 26.9 µM | 0.683 µM |

What follows are molecules tested on A549 NSCLC (assay: growth of human tumour cells (NCI), 48 h).

| Compound | TGI | GI50 |
| --- | --- | --- |
| C[C@@]1(O)CC[C@]2(C)C3CCCC3[C@H]12 (stereo partly drawn) | > 100 µM |  |
| O=C1OCC2=C1C(c1cccc(Br)c1)c1cc3c(cc1N2CCO)OCCO3 (stereo not drawn) | 5.97 µM | 0.131 µM |
| COc1ccc(Cn2c(Br)c3c(c2Br)-c2nc(N)sc2CC3)cc1 | 77 µM | 4.77 µM |
| CC(=O)[O-].CC(=O)[O-].O=C(N/N=C/c1cc(Cl)cc(Cl)c1O)c1ccncc1.[Cu+2] | > 100 µM |  |
| O=C(Nc1nc(=S)[nH][nH]1)C(=O)C(C(=O)c1ccc2ccccc2c1)C1OC(=O)c2ccccc21 (stereo not drawn) | > 100 µM |  |
| Cc1nnc2ccnn2c1C | > 100 µM | > 100 µM |
| CCOC(=O)C1=C(C)N(NC(=O)Nc2ccccc2)C2(N)N(NC(=O)Nc3ccccc3)C(C)=C(C(=O)OCC)C12C(=O)OCC (stereo not drawn) | > 100 µM |  |
| Cn1cc(-c2cc3c(N4CCN(c5ncc([C@@](C)(N)c6ccc(F)cc6)cn5)CC4)ncnn3c2)cn1 | > 100 µM | 5.61 µM |
| O=C(O)CSc1n[nH]c(-c2ccccc2O)n1 | > 100 µM |  |
| Cc1nc(-c2nc(C)c(C(=O)NNC(=O)C[n+]3ccccc3)s2)sc1C(=O)NNC(=O)C[n+]1ccccc1 | > 100 µM |  |
| CN(C)C=Nc1nc(=O)n(C2CCC(CO)O2)cc1F (stereo not drawn) | > 100 µM |  |
| O=c1[nH]c(-c2ccccc2)nc2cc(Cl)ccc12 | > 100 µM |  |
| Cc1ccc(S(=O)(=O)N2CCC2c2ccccc2)cc1 (stereo not drawn) | > 100 µM |  |
| CCCOc1nc(N)c2cnn(C3CCCCO3)c2n1 (stereo not drawn) | > 100 µM |  |
| C/C(CN1C(=O)c2ccccc2C1=O)=N\NS(=O)(=O)c1ccc(Cl)cc1 | > 100 µM |  |
| C[C@@H]1CC[C@H]2C(C)(C)[C@H]3C[C@@]12CC[C@@]3(C)O | > 100 µM |  |
| COc1ccc(/C=C/COC(C)=O)cc1OC | > 100 µM |  |
| C=C(C)C(=O)O[C@@H]1C[C@@]2(C)O[C@@H]2C[C@H](O)/C(C)=C/[C@H]2OC(=O)C(=C)[C@@H]21 | > 100 µM |  |

| Compound | TGI | GI50 |
| --- | --- | --- |
| Cc1ccc(-c2nc(N3CCNCC3)c3oc(-c4ccc(C)cc4)nc3n2)cc1 | 12.4 µM | 3.35 µM |
| [O-][Cl+3]([O-])([O-])[O-].[O]=[Ru]=[O].c1ccc(-c2ccccn2)nc1.c1ccc(-c2ccccn2)nc1 | > 100 µM | > 100 µM |
| C=C1C(=O)O[C@H]2[C@H]1CC/C(CNC(=O)c1cc3ccccc3[nH]1)=C\CC[C@@]1(C)O[C@@H]21 | 15.7 µM | 4.39 µM |
| Cc1cc2c(cc1C)[n+](=O)c(C(=O)c1ccccc1)c(C(F)F)n2[O-] | 27.4 µM | 4.9 µM |
| Cc1ccc(NC2=C3CCCCC3OC2=O)cc1 (stereo not drawn) | > 100 µM | > 100 µM |
| COc1cc2c(cc1OC)C(Cl)C(c1ccc(F)cc1)=C2Cl (stereo not drawn) | 32.8 µM |  |
| CN(C)c1ccc(/C=N/NC(=S)Nc2ccccc2)cc1 | > 100 µM |  |
| O=C1C(C(Nc2ccccc2)c2ccccc2)=C([O-])c2ccccc21.O=C1C(C(Nc2ccccc2)c2ccccc2)=C([O-])c2ccccc21.[Cu+2] (stereo not drawn) | > 100 µM | 27.2 µM |
| CCOC(=O)C1Sc2ccccc2N=C1C (stereo not drawn) | > 100 µM |  |
| COC1=CC(=O)C(C2(OC(C)C)OC(=O)C(Cl)=C2Cl)=CC1=O (stereo not drawn) | > 100 µM |  |
| O=C(NC1C=CCC2C(=O)N(c3ccccc3)C(=O)C12)OCc1ccccc1 (stereo not drawn) | > 100 µM |  |
| CCC(C)SC1SCC2C(=O)N(C)C3(CC3C)C(=O)OCC(NC(=O)c3nc4ccccc4cc3O)C(=O)NC(C)C(=O)N(C)C1C(=O)N(C)C1(CC1C)C(=O)OCC(NC(=O)c1nc3ccccc3cc1O)C(=O)NC(C)C(=O)N2C (stereo not drawn) | 1.91 µM |  |
| Cc1[cH-]c(=O)n(-c2ccccc2)n1.[Au+].[Au].c1ccc([PH+](c2ccccc2)c2ccccc2)cc1.c1ccc([PH+](c2ccccc2)c2ccccc2)cc1 | > 100 µM | 46.8 µM |
| CC1(C)CC(c2c[nH]c3ccccc23)=CC2=Nc3ccccc3C21O (stereo not drawn) | > 100 µM |  |
| CN1C(=O)C(=O)N2c3ccc(Cl)cc3C3(c4ccccc4)N=CC12O3 (stereo not drawn) | 23.1 µM |  |
| N#CCCC[Si]12OCCN(CCO1)CCO2 | > 100 µM |  |
| O=C(/C=C/c1c(O)ccc2ccccc12)c1ccc([N+](=O)[O-])cc1 | > 100 µM |  |
| CN1CCN(c2ccc(Nc3ncc(Cl)c(NC[C@@H]4CCCO4)n3)cc2)CC1 | 5.5 µM | 1.05 µM |
